Assays:
[1] = tested on: imiquimod-induced mouse psoriasis-like model; assay: Imiquimod-induced mouse psoriasis-like model (PASI score); type: in vivo; conditions: oral gavage, 10 mg/kg, 25 mg/kg, 50 mg/kg, bid, compared with the model group
hERG channel = target: T1, hERG channel (Homo sapiens, UniProt Q12809); assay: hERG potassium channel inhibition assay (manual patch clamp); type: cell-based; conditions: HEK-293 cell line stably expressing hERG channel, at the tested concentrations
T1 construct: expressed in transfected cells; host or cells: HEK-293
T1 sequence (Q12809 whole entry): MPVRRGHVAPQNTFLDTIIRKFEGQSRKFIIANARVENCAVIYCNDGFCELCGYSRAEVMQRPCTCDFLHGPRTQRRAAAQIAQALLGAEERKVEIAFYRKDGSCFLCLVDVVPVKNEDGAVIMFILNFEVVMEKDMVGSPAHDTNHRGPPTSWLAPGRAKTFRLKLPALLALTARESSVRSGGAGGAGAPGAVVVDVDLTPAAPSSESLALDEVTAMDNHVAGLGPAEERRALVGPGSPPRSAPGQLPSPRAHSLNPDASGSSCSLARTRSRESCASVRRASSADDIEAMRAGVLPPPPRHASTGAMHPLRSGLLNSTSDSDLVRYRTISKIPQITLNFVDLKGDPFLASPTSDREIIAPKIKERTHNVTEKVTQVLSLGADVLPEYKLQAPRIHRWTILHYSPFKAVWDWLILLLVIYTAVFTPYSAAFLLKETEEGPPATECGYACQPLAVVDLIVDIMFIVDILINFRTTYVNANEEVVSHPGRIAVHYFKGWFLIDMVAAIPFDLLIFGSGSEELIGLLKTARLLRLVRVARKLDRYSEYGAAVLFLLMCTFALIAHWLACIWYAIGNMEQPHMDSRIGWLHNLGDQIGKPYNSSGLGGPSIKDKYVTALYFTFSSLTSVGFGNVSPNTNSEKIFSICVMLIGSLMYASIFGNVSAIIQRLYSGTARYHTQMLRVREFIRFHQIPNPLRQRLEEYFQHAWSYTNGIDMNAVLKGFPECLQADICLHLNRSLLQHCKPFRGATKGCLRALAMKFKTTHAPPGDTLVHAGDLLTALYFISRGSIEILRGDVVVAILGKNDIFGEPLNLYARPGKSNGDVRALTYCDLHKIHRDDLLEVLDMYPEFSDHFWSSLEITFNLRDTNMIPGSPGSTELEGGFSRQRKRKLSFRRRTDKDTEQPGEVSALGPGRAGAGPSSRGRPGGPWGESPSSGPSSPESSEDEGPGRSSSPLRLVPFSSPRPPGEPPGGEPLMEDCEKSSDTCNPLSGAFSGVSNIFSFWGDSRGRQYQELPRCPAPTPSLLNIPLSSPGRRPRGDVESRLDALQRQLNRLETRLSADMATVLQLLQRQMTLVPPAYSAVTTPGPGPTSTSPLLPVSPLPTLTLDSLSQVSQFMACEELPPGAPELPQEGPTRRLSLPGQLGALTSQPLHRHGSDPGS
Experimental: Instrumentation: HEKA EPC 10 patch clamp amplifier.
Method: in this experiment, the blocking effect of the compounds on the current of the HEK-293 cell line stably expressing hERG channel was measured using the manual patch clamp technique, and the risk of the compounds on the inhibition of cardiac hERG potassium channel was assessed by fitting the concentration effect relationship.
Procedure: in the patch clamp operation, firstly, a capillary glass tube was pulled into a recording electrode using a microelectrode puller, then an electrode filled with intracellular solution was mounted into a microelectrode holder. A microelectrode manipulator was operated under an inverted microscope to immerse the electrode into an extracellular solution and the electrode resistance (Rpip) was recorded. Then, the electrode was slowly brought into contact with the cell surface, and a negative pressure was applied for suction to form a GΩ seal. At this point, a fast capacitance compensation was performed, and a negative pressure was continuously applied to suck and break the cell membrane to form a whole cell recording mode. Finally, a slow capacitance compensation was performed and experimental parameters including series resistance (Rs) and the like were recorded. No leakage compensation was performed. When the hERG current recorded by the whole cell was stable, the administration of drugs commenced, and each drug concentration acted for about 5 min (or until the current stabilization) before detecting the next concentration. A cover glass covered with cells was placed in a recording bath under an inverted microscope, the blank control extracellular solution and the working solution of the compounds to be tested sequentially flowed through the recording bath from low concentration to high concentration by using gravity perfusion to act on the cells, and solution exchange was performed using a peristaltic pump during recording. The current measured by each cell in the extracellular solution without the compound served as its own control group. Each concentration was independently assessed twice. All electrophysiological tests were performed at room temperature.
Data Analysis: firstly, the tail current (Peak tail currentcompound) after the action of each drug concentration and the blank control tail current (Peak tail currentcontrol) were normalized, then the inhibition rate
corresponding to each drug concentration was calculated, and the mean (Mean), standard deviation (SD) and standard error (SE) of the inhibition rate corresponding to each concentration were calculated, with data expressed as Mean±SE. The calculation of IC50 value and the fitting of dose-response curve for the compound were performed using GraphPad Prism software.

JAK2 JH1 kinase = JAK2 JH1 kinase (Homo sapiens, UniProt O60674); assay: JAK2 JH1 enzyme assay in vitro (TR-FRET); type: biochemical; conditions: read-out: JAK 2 JH1 IC50
JAK2 JH1 kinase, sequence (O60674 849-1124 limits assumed): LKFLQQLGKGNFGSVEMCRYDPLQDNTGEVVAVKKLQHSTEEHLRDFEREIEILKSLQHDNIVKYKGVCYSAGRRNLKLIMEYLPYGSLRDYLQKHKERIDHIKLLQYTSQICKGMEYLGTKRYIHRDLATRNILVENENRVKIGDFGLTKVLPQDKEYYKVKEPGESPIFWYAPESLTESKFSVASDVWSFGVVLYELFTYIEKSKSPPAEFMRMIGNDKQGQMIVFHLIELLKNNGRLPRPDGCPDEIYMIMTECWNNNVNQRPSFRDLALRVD

TYK2 JH2 pseudokinase = TYK2 JH2 pseudokinase (Homo sapiens, UniProt P29597); assay: TYK2 JH2 enzyme binding assay in vitro (TR-FRET)
TYK2 JH2 pseudokinase, sequence (P29597 589-875 limits assumed): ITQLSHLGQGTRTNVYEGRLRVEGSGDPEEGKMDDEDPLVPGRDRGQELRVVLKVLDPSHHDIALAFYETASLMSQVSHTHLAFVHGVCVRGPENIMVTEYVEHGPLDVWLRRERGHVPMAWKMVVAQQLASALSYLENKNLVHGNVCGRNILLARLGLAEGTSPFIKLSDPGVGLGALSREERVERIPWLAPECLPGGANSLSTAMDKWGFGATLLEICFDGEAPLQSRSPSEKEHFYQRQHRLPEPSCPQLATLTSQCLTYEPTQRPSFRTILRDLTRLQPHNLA
Experimental: Instrumentation: Envision microplate reader (PerkinElmer), ECHO550 (LABCYTE).
Method: the inhibitory effects of compounds on TYK2 JH2 pseudokinase was tested using time-resolved fluorescence resonance energy transfer (TR-FRET) method.
Procedure: compounds were prepared into 10 mM stock solutions using DMSO, which were further diluted into compound dilutions (200×) with different concentration gradients in DMSO, and the compound dilutions (200×) were transferred to a 384-well assay plate using an Echo instrument. […] TYK2 JH2 pseudokinase, Tb antibody, and Tracer working solutions were prepared using the dilution buffer, respectively. 5 uL of TYK2 JH2 pseudokinase working solution (final concentration 0.5 nM) was added to a 384-well assay plate, and centrifuged at 1000 rpm for 30 s. 5 uL of Tb antibody (final concentration 1×) was added to the 384-well assay plate, and centrifuged at 1000 rpm for 30 s. 5 uL of Tracer (final concentration 0.5 nM) was added to the 384-well assay plate, and centrifuged at 1000 rpm for 30 s. Incubation was performed at room temperature for 60 min, and then at 4° C. overnight.
Data Analysis: XLfit, a software developed by IDBS and integrated into the Microsoft Excel environment, was used to process and analyze the test data.

JAK1 JH1 kinase = JAK1 JH1 kinase (Homo sapiens, UniProt P23458); assay: JAK1 JH1 enzyme assay in vitro (TR-FRET); type: biochemical; conditions: read-out: JAK 1 JH1 IC50
JAK1 JH1 kinase, sequence (P23458 875-1153 limits assumed): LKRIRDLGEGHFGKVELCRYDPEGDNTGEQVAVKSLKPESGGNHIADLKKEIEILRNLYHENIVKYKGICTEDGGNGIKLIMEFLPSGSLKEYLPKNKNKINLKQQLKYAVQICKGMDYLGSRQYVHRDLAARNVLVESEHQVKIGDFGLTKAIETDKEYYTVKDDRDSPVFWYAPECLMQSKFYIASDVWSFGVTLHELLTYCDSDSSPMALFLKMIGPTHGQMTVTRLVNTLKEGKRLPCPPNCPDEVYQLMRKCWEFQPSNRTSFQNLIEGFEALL

JAK1 JH2 pseudokinase = JAK1 JH2 pseudokinase (Homo sapiens, UniProt P23458); assay: JAK1 JH2 enzyme binding assay in vitro (TR-FRET); conditions: read-out: JAK 1 JH2 IC50
JAK1 JH2 pseudokinase, sequence (P23458 583-855 limits assumed): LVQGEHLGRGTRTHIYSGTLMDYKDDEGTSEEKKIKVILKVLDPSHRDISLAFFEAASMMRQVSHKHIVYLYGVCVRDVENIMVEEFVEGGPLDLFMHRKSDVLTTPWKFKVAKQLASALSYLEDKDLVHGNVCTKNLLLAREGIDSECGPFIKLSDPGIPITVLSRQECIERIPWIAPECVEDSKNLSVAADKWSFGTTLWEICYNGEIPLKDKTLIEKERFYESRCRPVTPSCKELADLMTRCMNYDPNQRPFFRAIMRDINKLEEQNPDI
Experimental: Instrumentation: Envision microplate reader (PerkinElmer), Echo (LABCYTE)
Method: in this experiment, the inhibitory effects of compounds on JAK1 JH2 pseudokinase was tested using time-resolved fluorescence resonance energy transfer (TR-FRET) method.
Procedure: compounds were prepared into 10 mM stock solutions using DMSO, which were further diluted into compound dilutions with different concentration gradients in DMSO, and the compound dilutions with 200× final concentration were transferred to a 384-well assay plate using an Echo instrument. The preparation of the following 1× assay working solution: HEPES pH7.5 at a final concentration of 20 mM, MgCl2 at a final concentration of 10 mM, Brij-35 at a final concentration of 0.015%, DTT at a final concentration of 2 mM, BSA at a final concentration of 50 ug/mL. JAK1 JH2 pseudokinase with 3× final concentration, Tb antibody and Tracer were prepared using their respective 1× working solution. 5 uL of JAK1 JH2 pseudokinase was added to a 384-well assay plate, and centrifuged at 1000 rpm for 30 s. 5 uL of Tb antibody was added to the 384-well assay plate, and centrifuged at 1000 rpm for 30 s. 5 uL of Tracer was added to the 384-well assay plate, and centrifuged at 1000 rpm for 30 s. Incubation was performed at room temperature for 60 min, and then at 4° C. overnight. Finally, the 495 nm/520 nm fluorescence signal ratio was measured using the Envision microplate reader (PerkinElmer).
Data Analysis: XLfit, a software developed by IDBS and integrated into the Microsoft Excel environment, was used to process and analyze the test data. […] Thereafter, the concentration and corresponding inhibition rate data were imported into the XLfit software, and the Dose Response One Site 205 model within the software was employed to fit the inhibition rate-concentration curve by four-parameter method, and the IC50 value of the compound was calculated.

JAK3 JH1 kinase = JAK3 JH1 kinase (Homo sapiens, UniProt P52333); assay: JAK3 JH1 enzyme assay in vitro (TR-FRET); type: biochemical; conditions: TR-FRET; read-out: JAK 3 JH1 IC50
JAK3 JH1 kinase, sequence (P52333 822-1111 limits assumed): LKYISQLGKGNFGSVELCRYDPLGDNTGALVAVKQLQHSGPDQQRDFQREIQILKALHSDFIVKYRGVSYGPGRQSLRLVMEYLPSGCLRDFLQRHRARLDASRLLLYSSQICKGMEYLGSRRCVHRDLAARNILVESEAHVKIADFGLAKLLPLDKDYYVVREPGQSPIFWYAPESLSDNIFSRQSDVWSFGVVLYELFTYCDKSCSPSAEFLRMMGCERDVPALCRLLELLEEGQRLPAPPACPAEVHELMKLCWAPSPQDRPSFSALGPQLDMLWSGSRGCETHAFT

[2] = target: Ba/F3 cell line expressing TYK2 (Homo sapiens, UniProt P29597, cells depend on it, form not given); assay: In vitro cellular inhibition assay (Ba/F3 cell proliferation, CellTiter-Glo); type: cell-based; conditions: read-out: IC50 (the source's name)
Experimental: The inhibitory effect of the compounds of formula (I) according to the present invention on the TYK2 signaling pathway in cells was assessed using the following method:
Instrumentation: SpectraMax Paradigm reader.
Method: in this experiment, a Ba/F3 cell line expressing TYK2 was employed to assess the effect of the compounds on cell proliferation inhibition by measuring their effects on cell activity in vitro.
Procedure: a CellTiter-Glo buffer was thawed and placed aside till room temperature. A CellTiter-Glo substrate was placed aside till room temperature and dissolved with the buffer to prepare a CellTiter-Glo working solution. To a 96-well flat bottom transparent drug plate, 98 μL of cell culture medium and 2 μL of gradient diluted compound solution were added. The drug plate was placed aside for 10 min, and then 50 μL of the CellTiter-Glo working solution was added. The drug plate was subsequently shaken on an orbital shaker for 2 min and placed aside at room temperature for an additional 10 min. Finally, the luminescence signal was measured on the SpectraMax Paradigm reader.
Data Analysis: the cell proliferation inhibition rate data were processed using the following formula:
Inhibition Rate (Inh %)=100−(RLUDrug−RLUMin)/(RLUMax−RLUMin)×100%.
The inhibition rates of compounds with different concentrations were calculated in EXCEL, and then GraphPad Prism software was employed to plot inhibition rate curve and calculate relevant parameters, including maximum and minimum cell inhibition rates, IC50 values.

TYK2 JH1 kinase = target: T2, TYK2 JH1 kinase (Homo sapiens, UniProt P29597); assay: TYK2 JH1 enzyme assay in vitro (TR-FRET); type: biochemical
T2 sequence (P29597 897-1176 limits assumed): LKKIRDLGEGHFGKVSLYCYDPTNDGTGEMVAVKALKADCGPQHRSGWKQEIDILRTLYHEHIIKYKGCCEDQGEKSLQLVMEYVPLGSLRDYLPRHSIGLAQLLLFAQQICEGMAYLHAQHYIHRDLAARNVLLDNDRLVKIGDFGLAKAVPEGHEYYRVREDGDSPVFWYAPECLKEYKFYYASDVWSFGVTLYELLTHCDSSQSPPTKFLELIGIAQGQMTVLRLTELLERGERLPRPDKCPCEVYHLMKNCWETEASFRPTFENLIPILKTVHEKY

SMILES | Improvement of psoriasis symptoms by oral administration [1] | hERG inhibition (hERG channel) | IC50 (JAK2 JH1 kinase) | IC50 (TYK2 JH2 pseudokinase) | IC50 (JAK1 JH1 kinase) | IC50 (JAK1 JH2 pseudokinase) | IC50 (JAK3 JH1 kinase) | GI50 [2] | IC50 (TYK2 JH1 kinase)
[2H]C([2H])([2H])NC(=O)c1nnc(NC(=O)C2CC2)cc1Nc1cccc(C(=O)Nc2cncc(C)c2)c1OC [Example 38] | effectively improve psoriasis symptoms | no significant inhibition | > 10000 nM | 0.322 nM | > 10000 nM | 2.35 nM | > 10000 nM | 1 to 5 nM | > 10000 nM
[2H]C([2H])([2H])NC(=O)c1nnc(NC(=O)C2CC2)cc1Nc1cccc(C(=O)Nc2ccc(C)c(C)c2)c1OC [Example 4] | effectively improve psoriasis symptoms | no significant inhibition | > 10000 nM | 0.293 nM | > 10000 nM | 5.33 nM | > 10000 nM | 1 to 5 nM | > 10000 nM
[2H]C([2H])([2H])NC(=O)c1cnc(NC(=O)C2CC2)cc1Nc1cccc(C(=O)Nc2ccc(C)c(C)c2)c1OC [Example 62] | effectively improve psoriasis symptoms | no significant inhibition | > 10000 nM | 0.277 nM | > 10000 nM | 14.3 nM | > 10000 nM | 1 to 5 nM | > 10000 nM
[2H]C([2H])([2H])NC(=O)c1cnc(NC(=O)C2CC2)cc1Nc1cccc(C(=O)Nc2ccc(F)cc2)c1OC [Example 57, 6-(Cyclopropanecarboxamido)-4-((3-((4-fluorophenyl)carbamoyl)-2-methoxyphenyl)amino)-N-(methyl-d3)nicotinamide] | effectively improve psoriasis symptoms | no significant inhibition | > 10000 nM | 0.284 nM | > 10000 nM | 5.68 nM | > 10000 nM | 1 to 5 nM | > 10000 nM
[2H]C([2H])([2H])NC(=O)c1cnc(NC(=O)C2CC2)cc1Nc1cccc(C(=O)Nc2cncc(C)c2)c1OC [Example 91] | effectively improve psoriasis symptoms | no significant inhibition | > 10000 nM | 0.312 nM | > 10000 nM | 3.29 nM | > 10000 nM | 1 to 5 nM | > 10000 nM
[2H]C([2H])([2H])NC(=O)c1nnc(NC(=O)C2CC2)cc1Nc1cccc(C(=O)Nc2cnn(C)c2)c1OC [Example 34] | effectively improve psoriasis symptoms | no significant inhibition | > 10000 nM | 0.341 nM | > 10000 nM | 4.16 nM | > 10000 nM | 1 to 5 nM | > 10000 nM
[2H]C([2H])([2H])NC(=O)c1nnc(NC(=O)C2CC2)cc1Nc1cccc(C(=O)Nc2ccc(C)cc2)c1OC [Example 2] | effectively improve psoriasis symptoms | no significant inhibition | > 10000 nM | 0.311 nM | > 10000 nM | 6.56 nM | > 10000 nM | 1 to 5 nM | > 10000 nM
[2H]C([2H])([2H])NC(=O)c1cnc(NC(=O)C2CC2)cc1Nc1cccc(C(=O)Nc2cnn(C)c2)c1OC [Example 86] | effectively improve psoriasis symptoms | no significant inhibition | > 10000 nM | 0.299 nM | > 10000 nM | 17.6 nM | > 10000 nM | 1 to 5 nM | > 10000 nM
[2H]C([2H])([2H])NC(=O)c1cnc(NC(=O)C2CC2)cc1Nc1cccc(C(=O)Nc2ccc(C)cc2)c1OC [Example 54] | effectively improve psoriasis symptoms | no significant inhibition | > 10000 nM | 0.302 nM | > 10000 nM | 4.56 nM | > 10000 nM | 1 to 5 nM | > 10000 nM
[2H]C([2H])([2H])NC(=O)c1cnc(NC(=O)C2CC2)cc1Nc1cccc(C(=O)Nc2cccc(C)c2)c1OC [Example 55] | effectively improve psoriasis symptoms | no significant inhibition | > 10000 nM | 0.298 nM | > 10000 nM | 3.3 nM | > 10000 nM | 1 to 5 nM | > 10000 nM

From patent US20260098017A1, “NOVEL AROMATIC RING DERIVATIVE CONTAINING AMIDE SUBSTITUTION AND USE THEREOF” (TIANJIN PHARMACEUTICAL BIOTECHNOLOGY CO., LTD., priority 2022, published 2026)
